Experimental data taken from patent publication US20260042731A1, “(2,4-DICHLOROPHENOXY)ACETIC ACID ANALOGS” (CORTEVA AGRISCIENCE LLC, priority 2022, published 2026).
Like-named read-outs stand apart in the source and are kept apart here.

What was measured:
[1] = test system: Amaranthus rudis (AMATA), tall water hemp; assay: Postemergence herbicide evaluation, growth of Amaranthus rudis (AMATA); assay type: in vivo; settings: Amaranthus tuberculatus, post-emergence, percent reduction in plant size relative to untreated control, read-out: Ave. AMATA; for pest or weed control at 280 g/ha: 280 g ae/ha; for pest or weed control at 560 g/ha: 560 g ae/ha
[2] = test system: Ambrosia artemisiifolia (AMBEL), common ragweed; assay: Postemergence herbicide evaluation, growth of Ambrosia artemisiifolia (AMBEL); assay type: in vivo; settings: Ambrosia artemisiifolia, post-emergence, percent reduction in plant size relative to untreated control, read-out: AVE. AMBEL; for pest or weed control at 280 g/ha: 280 g ae/ha; for pest or weed control at 560 g/ha: 560 g ae/ha
[3] = test system: Abutilon theophrasti (ABUTH), velvetleaf; assay: Postemergence herbicide evaluation, growth of Abutilon theophrasti (ABUTH); assay type: in vivo; settings: Abutilon theophrasti, post-emergence, percent reduction in plant size relative to untreated control, read-out: AVE. ABUTH; for pest or weed control at 280 g/ha: 280 g ae/ha; for pest or weed control at 560 g/ha: 560 g ae/ha
[4] = test system: Chenopodium album (CHEAL), common lambsquarters; assay: Postemergence herbicide evaluation, growth of Chenopodium album (CHEAL); assay type: in vivo; settings: Chenopodium album, post-emergence, percent reduction in plant size relative to untreated control, read-out: Ave. CHEAL; for pest or weed control at 280 g/ha: 280 g ae/ha; for pest or weed control at 560 g/ha: 560 g ae/ha
[5] = test system: glyphosate resistant Conyza canadensis (L.) (ERICA), horseweed; assay: Postemergence herbicide evaluation, growth of Conyza canadensis (ERICA); assay type: in vivo; settings: Erigeron canadensis, post-emergence, percent reduction in plant size relative to untreated control, read-out: Ave. ERICA; for pest or weed control at 280 g/ha: 280 g ae/ha; for pest or weed control at 560 g/ha: 560 g ae/ha
[6] = Volatility of compounds measured by thermogravimetric analysis (TGA); assay type: physicochemical
[7] = test system: weeds (ABUTH, AMATA, AMBEL, CHEAL, ERICA); assay: Postemergence herbicide evaluation, overall average % weed control across ABUTH, AMATA, AMBEL, CHEAL, ERICA; assay type: in vivo; settings: post-emergence, average over the five weeds, read-out: Overall Ave % Weed Control; for pest or weed control at 280 g/ha: 280 g ae/ha; for pest or weed control at 560 g/ha: 560 g ae/ha

CCO/C(CC)=N\OC(=O)COc1ccc(Cl)cc1Cl [Compound A9, Ethyl N-2-(2,4-dichlorophenoxy)acetoxypropionimidate]
pest or weed control at 280 g/ha ([1]; 168 h, 7 DAA): 65%
pest or weed control at 560 g/ha ([1]; 168 h, 7 DAA): 78%
pest or weed control at 280 g/ha ([1]; 336 h, 14 DAA): 63%
pest or weed control at 560 g/ha ([1]; 336 h, 14 DAA): 85%
pest or weed control at 280 g/ha ([1]; 504 h, 21 DAA): 60%
pest or weed control at 560 g/ha ([1]; 504 h, 21 DAA): 84%
pest or weed control at 280 g/ha ([2]; 168 h, 7 DAA): 73%
pest or weed control at 560 g/ha ([2]; 168 h, 7 DAA): 83%
pest or weed control at 280 g/ha ([2]; 336 h, 14 DAA): 93%
pest or weed control at 560 g/ha ([2]; 336 h, 14 DAA): 93%
pest or weed control at 280 g/ha ([2]; 504 h, 21 DAA): 92%
pest or weed control at 560 g/ha ([2]; 504 h, 21 DAA): 96%
pest or weed control at 280 g/ha ([3]; 168 h, 7 DAA): 80%
pest or weed control at 560 g/ha ([3]; 168 h, 7 DAA): 80%
pest or weed control at 280 g/ha ([3]; 336 h, 14 DAA): 80%
pest or weed control at 560 g/ha ([3]; 336 h, 14 DAA): 96%
pest or weed control at 280 g/ha ([3]; 504 h, 21 DAA): 89%
pest or weed control at 560 g/ha ([3]; 504 h, 21 DAA): 95%
pest or weed control at 280 g/ha ([4]; 168 h, 7 DAA): 70%
pest or weed control at 560 g/ha ([4]; 168 h, 7 DAA): 65%
pest or weed control at 280 g/ha ([4]; 336 h, 14 DAA): 83%
pest or weed control at 560 g/ha ([4]; 336 h, 14 DAA): 68%
pest or weed control at 280 g/ha ([4]; 504 h, 21 DAA): 88%
pest or weed control at 560 g/ha ([4]; 504 h, 21 DAA): 75%
pest or weed control at 280 g/ha ([5]; 168 h, 7 DAA): 70%
pest or weed control at 560 g/ha ([5]; 168 h, 7 DAA): 70%
pest or weed control at 280 g/ha ([5]; 336 h, 14 DAA): 91%
pest or weed control at 560 g/ha ([5]; 336 h, 14 DAA): 84%
pest or weed control at 280 g/ha ([5]; 504 h, 21 DAA): 99%
pest or weed control at 560 g/ha ([5]; 504 h, 21 DAA): 97%
TGA Data (rate of weight loss, volatility) [6]: 0.5 µg/min
pest or weed control at 280 g/ha ([7]; 168 h, 7 DAA): 72%
pest or weed control at 560 g/ha ([7]; 168 h, 7 DAA): 75%
pest or weed control at 280 g/ha ([7]; 336 h, 14 DAA): 82%
pest or weed control at 560 g/ha ([7]; 336 h, 14 DAA): 85%
pest or weed control at 280 g/ha ([7]; 504 h, 21 DAA): 85%
pest or weed control at 560 g/ha ([7]; 504 h, 21 DAA): 89%

CS/C(C)=N\OC(=O)COc1ccc(Cl)cc1Cl [Compound A10, Methyl N-2-(2,4-dichlorophenoxy)acetoxyethanimidothioate]
pest or weed control at 280 g/ha ([1]; 168 h, 7 DAA): 80%
pest or weed control at 560 g/ha ([1]; 168 h, 7 DAA): 78%
pest or weed control at 280 g/ha ([1]; 336 h, 14 DAA): 80%
pest or weed control at 560 g/ha ([1]; 336 h, 14 DAA): 73%
pest or weed control at 280 g/ha ([1]; 504 h, 21 DAA): 78%
pest or weed control at 560 g/ha ([1]; 504 h, 21 DAA): 83%
pest or weed control at 280 g/ha ([2]; 168 h, 7 DAA): 70%
pest or weed control at 560 g/ha ([2]; 168 h, 7 DAA): 75%
pest or weed control at 280 g/ha ([2]; 336 h, 14 DAA): 85%
pest or weed control at 560 g/ha ([2]; 336 h, 14 DAA): 92%
pest or weed control at 280 g/ha ([2]; 504 h, 21 DAA): 100%
pest or weed control at 560 g/ha ([2]; 504 h, 21 DAA): 96%
pest or weed control at 280 g/ha ([3]; 168 h, 7 DAA): 83%
pest or weed control at 560 g/ha ([3]; 168 h, 7 DAA): 88%
pest or weed control at 280 g/ha ([3]; 336 h, 14 DAA): 90%
pest or weed control at 560 g/ha ([3]; 336 h, 14 DAA): 92%
pest or weed control at 280 g/ha ([3]; 504 h, 21 DAA): 98%
pest or weed control at 560 g/ha ([3]; 504 h, 21 DAA): 94%
pest or weed control at 280 g/ha ([4]; 168 h, 7 DAA): 65%
pest or weed control at 560 g/ha ([4]; 168 h, 7 DAA): 70%
pest or weed control at 280 g/ha ([4]; 336 h, 14 DAA): 75%
pest or weed control at 560 g/ha ([4]; 336 h, 14 DAA): 83%
pest or weed control at 280 g/ha ([4]; 504 h, 21 DAA): 83%
pest or weed control at 560 g/ha ([4]; 504 h, 21 DAA): 53%
pest or weed control at 280 g/ha ([5]; 168 h, 7 DAA): 63%
pest or weed control at 560 g/ha ([5]; 168 h, 7 DAA): 68%
pest or weed control at 280 g/ha ([5]; 336 h, 14 DAA): 85%
pest or weed control at 560 g/ha ([5]; 336 h, 14 DAA): 83%
pest or weed control at 280 g/ha ([5]; 504 h, 21 DAA): 93%
pest or weed control at 560 g/ha ([5]; 504 h, 21 DAA): 94%
TGA Data (rate of weight loss, volatility) [6]: 0.6 µg/min
pest or weed control at 280 g/ha ([7]; 168 h, 7 DAA): 72%
pest or weed control at 560 g/ha ([7]; 168 h, 7 DAA): 76%
pest or weed control at 280 g/ha ([7]; 336 h, 14 DAA): 83%
pest or weed control at 560 g/ha ([7]; 336 h, 14 DAA): 84%
pest or weed control at 280 g/ha ([7]; 504 h, 21 DAA): 90%
pest or weed control at 560 g/ha ([7]; 504 h, 21 DAA): 84%

O=C(COc1ccc(Cl)cc1Cl)ON1CCCCC1 [Compound A11, Piperidin-1-yl 2-(2,4-dichlorophenoxy)acetate]
pest or weed control at 280 g/ha ([1]; 168 h, 7 DAA): 73%
pest or weed control at 560 g/ha ([1]; 168 h, 7 DAA): 75%
pest or weed control at 280 g/ha ([1]; 336 h, 14 DAA): 89%
pest or weed control at 560 g/ha ([1]; 336 h, 14 DAA): 85%
pest or weed control at 280 g/ha ([1]; 504 h, 21 DAA): 85%
pest or weed control at 560 g/ha ([1]; 504 h, 21 DAA): 88%
pest or weed control at 280 g/ha ([2]; 168 h, 7 DAA): 65%
pest or weed control at 560 g/ha ([2]; 168 h, 7 DAA): 78%
pest or weed control at 280 g/ha ([2]; 336 h, 14 DAA): 90%
pest or weed control at 560 g/ha ([2]; 336 h, 14 DAA): 97%
pest or weed control at 280 g/ha ([2]; 504 h, 21 DAA): 95%
pest or weed control at 560 g/ha ([2]; 504 h, 21 DAA): 100%
pest or weed control at 280 g/ha ([3]; 168 h, 7 DAA): 83%
pest or weed control at 560 g/ha ([3]; 168 h, 7 DAA): 85%
pest or weed control at 280 g/ha ([3]; 336 h, 14 DAA): 93%
pest or weed control at 560 g/ha ([3]; 336 h, 14 DAA): 89%
pest or weed control at 280 g/ha ([3]; 504 h, 21 DAA): 99%
pest or weed control at 560 g/ha ([3]; 504 h, 21 DAA): 95%
pest or weed control at 280 g/ha ([4]; 168 h, 7 DAA): 68%
pest or weed control at 560 g/ha ([4]; 168 h, 7 DAA): 70%
pest or weed control at 280 g/ha ([4]; 336 h, 14 DAA): 75%
pest or weed control at 560 g/ha ([4]; 336 h, 14 DAA): 80%
pest or weed control at 280 g/ha ([4]; 504 h, 21 DAA): 80%
pest or weed control at 560 g/ha ([4]; 504 h, 21 DAA): 97%
pest or weed control at 280 g/ha ([5]; 168 h, 7 DAA): 65%
pest or weed control at 560 g/ha ([5]; 168 h, 7 DAA): 68%
pest or weed control at 280 g/ha ([5]; 336 h, 14 DAA): 90%
pest or weed control at 560 g/ha ([5]; 336 h, 14 DAA): 85%
pest or weed control at 280 g/ha ([5]; 504 h, 21 DAA): 95%
pest or weed control at 560 g/ha ([5]; 504 h, 21 DAA): 95%
TGA Data (rate of weight loss, volatility) [6]: 4 µg/min
pest or weed control at 280 g/ha ([7]; 168 h, 7 DAA): 71%
pest or weed control at 560 g/ha ([7]; 168 h, 7 DAA): 75%
pest or weed control at 280 g/ha ([7]; 336 h, 14 DAA): 87%
pest or weed control at 560 g/ha ([7]; 336 h, 14 DAA): 87%
pest or weed control at 280 g/ha ([7]; 504 h, 21 DAA): 91%
pest or weed control at 560 g/ha ([7]; 504 h, 21 DAA): 95%
